PubChem BioAssay AID1895 (NMMLSC, 2009)
Active and inactive are the calls of the source. The rule behind the calls is not given here.

Biological target: MEK5 PB1 domain binding to MEKK2 (MAP3K2) mutant PB1, human
Assay: mutant MEKK2 PB1-MEK5 interaction blockers – biochemical, bead multiplex flow cytometry, dose response (AID 1895)
Conditions: Bead-based multiplex flow cytometry; for Ki: measured here: Ki for PB1 binding

EC50	Ki	Compound
> 30 µM (inactive)	–	C#CCOCCOCCOCCNc1nc(N2CCN(C(=O)[C@H](CCC(=O)O)n3cc(C(N)CO)nn3)CC2)nc(N2CCN(C(=O)[C@H](Cc3cc4ccccc4[nH]3)n3cc(C(N)[C@H](C)CC)nn3)CC2)n1 (stereo partly drawn)
> 30 µM (inactive)	–	O=C(c1cc(COc2c(F)cccc2F)on1)N1C[C@H]2CC[C@H]1C2
> 30 µM (inactive)	–	COc1ccc(C(CCNCc2ccc(OC(C)C)cc2)c2ccccc2OC)cc1 (stereo not drawn)
> 30 µM (inactive)	–	COc1cc(CNCCc2c[nH]c3ccccc23)ccc1OCc1ccccc1F
> 30 µM (inactive)	–	CCCCCc1cc(=O)oc2c(C(CCN3CCCCC3)c3ccc(OC)cc3)c(OC)cc(OC)c12 (stereo not drawn)
> 30 µM (inactive)	–	NC(N)=N/N=C/c1ccc(OCc2ccccc2Cl)cc1
> 30 µM (inactive)	–	Cc1ccccc1OCC(O)CNC1CCC(NCC(O)COc2ccccc2C)CC1 (stereo not drawn)
> 30 µM (inactive)	–	CCCSc1ncnc2sc(C)c(C)c12
> 30 µM (inactive)	–	Cc1cc2cc(CNC(=O)NC3CCCCC3)ccc2[nH]1
> 30 µM (inactive)	–	CNC(=O)C(=O)Nc1c(C)cc(C)cc1C
> 30 µM (inactive)	–	Cc1sc(NC(=O)c2ccccc2)c(C(c2ccccn2)N2CCN(CCO)CC2)c1C (stereo not drawn)
5.14 µM	5.04 µM	CN1C(=CC=C2C=C(I)C(=O)C(I)=C2)C(C)(C)c2ccccc21
> 30 µM (inactive)	–	O=[N+]([O-])c1ccc(/C=C/C2=NN(c3ccccc3)C(c3ccco3)C2)o1 (stereo not drawn)
24.9 µM	–	C#CCOCCOCCOCCNc1nc(N2CCN(C(=O)[C@H](Cc3ccc(O)cc3)n3cc([C@@H](N)C(C)CC)nn3)CC2)nc(N2CCN(C(=O)[C@H](Cc3cc4ccccc4[nH]3)n3cc([C@@H](N)CC(C)C)nn3)CC2)n1 (stereo partly drawn)
26.4 µM	–	CCCCCc1cc(=O)oc2c(C(CCN3CCCC3)c3ccc(N(C)C)cc3)c(OC)cc(OC)c12 (stereo not drawn)
> 30 µM (inactive)	–	C#CCOCCOCCOCCNc1nc(N2CCN(C(=O)[C@H]([C@@H](C)CC)n3cc([C@@H](N)CO)nn3)CC2)nc(N2CCN(C(=O)[C@H](Cc3cc4ccccc4[nH]3)n3cc([C@@H](N)C(C)CC)nn3)CC2)n1 (stereo partly drawn)

EC50	Ki	Compound
20.9 µM	–	C#CCOCCOCCOCCNc1nc(N2CCN(C(=O)[C@H]([C@@H](C)CC)n3cc([C@@H](N)CC(C)C)nn3)CC2)nc(N2CCN(C(=O)[C@H](Cc3cc4ccccc4[nH]3)n3cc([C@@H](N)CC(C)C)nn3)CC2)n1
> 30 µM (inactive)	–	CCCCCCCCCC[N+](C)(C)CC/C=C1/c2ccccc2Sc2ccc(Cl)cc21
> 30 µM (inactive)	–	COc1ccc(N2CC(C(=O)Nc3nnc(SCc4ccccn4)s3)CC2=O)cc1 (stereo not drawn)
> 30 µM (inactive)	–	COc1ccc(CNC[C@@H](CCCCN(C)Cc2ccc(OC)cc2)N2C[C@H](c3ccccc3)N(CCc3ccc(Cl)c(Cl)c3)C(=O)C2=O)cc1
> 30 µM (inactive)	–	CN1CCN(CC(=O)N2CCn3c4c(c5cc(C6CCCCC6)ccc53)CCCC42)CC1 (stereo not drawn)
> 30 µM (inactive)	–	CCCCCCCCCCOC(=O)Cn1c(COc2cccc(C)c2)[n+](C)c2ccccc21
4.57 µM	–	CCCCCCCCCCOC(=O)Cn1c(COc2ccc(C)cc2)[n+](C)c2ccccc21
> 30 µM (inactive)	–	CCN(CC)CCOC(=O)c1ccc(NC(=O)c2cn(-c3ccccc3)nc2-c2cccs2)cc1
> 30 µM (inactive)	–	Nc1ccc(N)c(C(=O)O)c1
5.85 µM	–	S=C(Nc1cccc(Cl)c1)N(CCCN1CCCC1)Cc1cccn1Cc1ccc(Cl)cc1
2.23 µM	–	COc1ccc(Cn2c(SCc3ccc(C)cc3)nc3cc(OC)c(OC)cc3c2=N)cc1Cl
inactive	–	C#CCOCCOCCOCCNc1nc(N2CCN(C(=O)[C@H]([C@@H](C)CC)n3cc([C@@H](N)CO)nn3)CC2)nc(N2CCN(C(=O)[C@H](Cc3cc4ccccc4[nH]3)n3cc([C@@H](N)Cc4ccc(O)cc4)nn3)CC2)n1
> 30 µM (inactive)	–	CCN(CC)CCOC(=O)c1ccc(N/C=C(/C#N)c2nc(-c3ccc4c(c3)OCO4)cs2)cc1
inactive	–	CCCCn1c(O)c(/C=C/C=C/C=Nc2ccccc2)sc1=S
inactive	2.9 µM	CCOC(=O)C(C(=O)OCC)c1cc(Br)c2noc3c2c1C(=O)c1ccccc1-3
